# Source: paper PMC12223841, “Compounds Isolated from Paepalanthus spp. (Eriocaulaceae) and Their Evaluation in Antimicrobial, Cytotoxic, and Antiviral Assays” (ACS Omega, 2025)
# pIC50: −log10 of the molar value.
# Legend:
# [1] = tested on: HCT-116 (human colon cancer); test: MTT growth-inhibition assay, HCT-116; assay type: cell-based; conditions: 72 h; for inhibition at 50 µM: read-out: Inhibition percentage (growth), HCT 116
# [2] = tested on: MCF-7 (human breast cancer); test: MTT growth-inhibition assay, MCF-7; assay type: cell-based; conditions: 72 h; for inhibition at 50 µM: MCF7, 50 μM, read-out: Inhibition percentage (growth), MCF-7
# [3] = tested on: Escherichia coli (NEWP0022); test: Broth microdilution with TTC, E. coli; assay type: cell-based; conditions: 24 h, 36 °C
# [4] = tested on: Staphylococcus aureus (NEWP0023); test: Broth microdilution with TTC, S. aureus; assay type: cell-based; conditions: 24 h, 36 °C
# [5] = in vitro; conditions: hamster
# Procedure: The compounds were further diluted in a culture medium to a final concentration of 10 μM.
# The proliferation assay was performed based on WST-8, using the Cell Counting kit-8. After incubation with the compounds, 10 μL per well of CCK8 solution was added, and the plates were incubated in a CO2 incubator at 37 °C for 2 h. Then, the absorbance was measured at 450 nm in the SpectraMax 384 Plate Reader. Cells in 1% DMSO were used as a negative control for the assay.
SMILES,"pIC50 ([1]; positive control, 95% confidence interval in brackets)","pIC50 ([2]; MCF7, positive control, 95% confidence interval in brackets)",MIC [3] [µg/mL],MIC [4] [µg/mL],viability at 10 µM [5] [%],inhibition at 50 µM [1] [%],inhibition at 50 µM [2] [%]
"COc1cccc2c1C(=O)c1c(O)c3c(c(O)c1C2=O)C[C@@](O)(C(=O)CO)C[C@@H]3O[C@H]1C[C@H](N)[C@H](O)[C@H](C)O1 [Doxorubicin, doxorubicin, reference compound]",6.74,5.94,–,–,–,–,–
"COc1c(O)cc2oc(-c3ccc(O)cc3)c(O[C@@H]3O[C@H](CO)[C@@H](O)[C@H](O)[C@H]3O)c(=O)c2c1O [Compound 5, 6-Methoxykaempferol-3-O-β-glucopyranoside]",–,–,≥ 250,≥ 500,–,–,–
"COc1c(O)cc2oc(-c3ccc(O)cc3)c(OC3OC(COC(=O)C=Cc4ccc(O)cc4)C(O)C(O)C3O)c(=O)c2c1O [Compound 4, 6-Methoxykaempferol-3-O-β-D-6″-(p-coumaroyl)-glycopyranoside]",–,–,≥ 250,≥ 500,100,11.5,3.45
"COc1c(O)cc2oc(-c3ccc(O)cc3)c(O)c(=O)c2c1O [Compound 1, 6-Methoxykaempferol]",–,–,≥ 250,250,–,29.2,19.2
"CNC(C)C1CCC(N)C(OC2C(N)CC(N)C(OC3OCC(C)(O)C(NC)C3O)C2O)O1 (stereo not drawn) [gentamicin, reference compound]",–,–,≤ 0.5,≤ 0.5,–,–,–
